Reference: the supplement of paper PMC10307832

Columns and labels:
Test in all cases: relative viability (nuclei count vs DMSO), 5 days (fraction); higher = more cells survive
[1] = system: LXF-289
Outline: (§1)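 Lung cancer cell lines, seeded in 1536-well plates, were treated the following day by pin tool with a single drug or with five library-drug doses (not always all listed) in √10 steps on top of a fixed anchor-drug dose. Cells were fixed and nuclei stained in one step after 5 days, and nuclei were counted. Relative viability is the nuclei count for treated wells divided by that for vehicle wells, reported as medians of duplicate plates.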

[2] = system: LCLC-103H
Outline: as §1

[3] = system: NCI-H1650
Outline: as §1

[4] = system: SK-LU-1
Outline: as §1

[5] = system: NCI-H1437
Outline: as §1

[6] = system: HCC-827
Outline: as §1

[7] = system: LCLC-97TM1
Outline: as §1

[8] = system: NCI-H3122
Outline: as §1

[9] = system: NCI-H647
Outline: as §1

[10] = system: NCI-H2405
Outline: as §1

[11] = system: NCI-H2087
Outline: as §1

[12] = system: NCI-H1793
Outline: as §1

[13] = system: NCI-H2228
Outline: as §1

[14] = system: NCI-H322M
Outline: as §1

[15] = system: NCI-H1944
Outline: as §1

[16] = system: NCI-H1792
Outline: as §1

[17] = system: NCI-H1395
Outline: as §1

[18] = system: 201T
Outline: as §1

[19] = system: RERF-LC-KJ
Outline: as §1

[20] = system: BEN
Outline: as §1

[21] = system: CAL-12T
Outline: as §1

## Cc1sc2c(c1C)C(c1ccc(Cl)cc1)=N[C@@H](CC(=O)OC(C)(C)C)c1nnc(C)n1-2 [JQ1] + Nc1nc2[nH]cc(CCc3ccc(C(=O)N[C@@H](CCC(=O)O)C(=O)O)cc3)c2c(=O)[nH]1 [Pemetrexed] (partner 0.2 µM)
[1]; first compound 0.04 µM
  relative viability: 0.915
[1]; first compound 0.1265 µM
  relative viability: 0.808
[1]; first compound 0.4 µM
  relative viability: 0.867
[1]; first compound 1.265 µM
  relative viability: 0.59
[1]; first compound 4 µM
  relative viability: 0.541
[2]; first compound 0.04 µM
  relative viability: 0.44
[2]; first compound 0.1265 µM
  relative viability: 0.385
[2]; first compound 0.4 µM
  relative viability: 0.393
[2]; first compound 1.265 µM
  relative viability: 0.359
[2]; first compound 4 µM
  relative viability: 0.437
[3]; first compound 0.04 µM
  relative viability: 0.365
[3]; first compound 0.1265 µM
  relative viability: 0.293
[3]; first compound 0.4 µM
  relative viability: 0.335
[3]; first compound 1.265 µM
  relative viability: 0.202
[3]; first compound 4 µM
  relative viability: 0.183
[4]; first compound 0.04 µM
  relative viability: 0.974
[4]; first compound 0.1265 µM
  relative viability: 0.766
[4]; first compound 0.4 µM
  relative viability: 0.607
[4]; first compound 1.265 µM
  relative viability: 0.278
[4]; first compound 4 µM
  relative viability: 0.181
[5]; first compound 0.04 µM
  relative viability: 0.303
[5]; first compound 0.1265 µM
  relative viability: 0.309
[5]; first compound 0.4 µM
  relative viability: 0.244
[5]; first compound 1.265 µM
  relative viability: 0.201
[5]; first compound 4 µM
  relative viability: 0.208
[6]; first compound 0.04 µM
  relative viability: 0.262
[6]; first compound 0.1265 µM
  relative viability: 0.255
[6]; first compound 1.265 µM
  relative viability: 0.211
[6]; first compound 4 µM
  relative viability: 0.247
[7]; first compound 0.04 µM
  relative viability: 0.168
[7]; first compound 0.1265 µM
  relative viability: 0.199
[7]; first compound 0.4 µM
  relative viability: 0.172
[7]; first compound 1.265 µM
  relative viability: 0.141
[7]; first compound 4 µM
  relative viability: 0.0882
[8]; first compound 0.04 µM
  relative viability: 0.193
[8]; first compound 0.1265 µM
  relative viability: 0.16
[8]; first compound 0.4 µM
  relative viability: 0.186
[8]; first compound 1.265 µM
  relative viability: 0.118
[8]; first compound 4 µM
  relative viability: 0.12
[9]; first compound 0.04 µM
  relative viability: 0.156
[9]; first compound 0.1265 µM
  relative viability: 0.125
[9]; first compound 0.4 µM
  relative viability: 0.105
[9]; first compound 1.265 µM
  relative viability: 0.0945
[9]; first compound 4 µM
  relative viability: 0.0741
[10]; first compound 0.04 µM
  relative viability: 1.08
[10]; first compound 0.4 µM
  relative viability: 0.899
[10]; first compound 1.265 µM
  relative viability: 0.72
[10]; first compound 4 µM
  relative viability: 0.321
[11]; first compound 0.04 µM
  relative viability: 0.621
[11]; first compound 0.1265 µM
  relative viability: 0.675
[11]; first compound 0.4 µM
  relative viability: 0.692
[11]; first compound 1.265 µM
  relative viability: 0.558
[11]; first compound 4 µM
  relative viability: 0.463
[12]; first compound 0.04 µM
  relative viability: 0.748
[12]; first compound 0.1265 µM
  relative viability: 0.81
[12]; first compound 0.4 µM
  relative viability: 0.648
[12]; first compound 1.265 µM
  relative viability: 0.661
[12]; first compound 4 µM
  relative viability: 0.78
[13]; first compound 0.04 µM
  relative viability: 0.362
[13]; first compound 0.1265 µM
  relative viability: 0.314
[13]; first compound 0.4 µM
  relative viability: 0.358
[13]; first compound 1.265 µM
  relative viability: 0.312
[13]; first compound 4 µM
  relative viability: 0.184
[14]; first compound 0.04 µM
  relative viability: 0.625
[14]; first compound 0.1265 µM
  relative viability: 0.648
[14]; first compound 0.4 µM
  relative viability: 0.515
[14]; first compound 1.265 µM
  relative viability: 0.495
[14]; first compound 4 µM
  relative viability: 0.381
[15]; first compound 0.04 µM
  relative viability: 0.74
[15]; first compound 0.1265 µM
  relative viability: 0.565
[15]; first compound 0.4 µM
  relative viability: 0.466
[15]; first compound 1.265 µM
  relative viability: 0.446
[15]; first compound 4 µM
  relative viability: 0.438
[16]; first compound 0.04 µM
  relative viability: 0.705
[16]; first compound 0.1265 µM
  relative viability: 0.699
[16]; first compound 0.4 µM
  relative viability: 0.434
[16]; first compound 1.265 µM
  relative viability: 0.15
[16]; first compound 4 µM
  relative viability: 0.0524
[17]; first compound 0.04 µM
  relative viability: 0.911
[17]; first compound 0.1265 µM
  relative viability: 0.737
[17]; first compound 0.4 µM
  relative viability: 0.797
[17]; first compound 1.265 µM
  relative viability: 0.496
[17]; first compound 4 µM
  relative viability: 0.343
[18]; first compound 0.04 µM
  relative viability: 0.325
[18]; first compound 0.4 µM
  relative viability: 0.293
[18]; first compound 1.265 µM
  relative viability: 0.274
[18]; first compound 4 µM
  relative viability: 0.23
[19]; first compound 0.04 µM
  relative viability: 0.487
[19]; first compound 0.1265 µM
  relative viability: 0.481
[19]; first compound 0.4 µM
  relative viability: 0.46
[19]; first compound 1.265 µM
  relative viability: 0.33
[19]; first compound 4 µM
  relative viability: 0.275
[20]; first compound 0.04 µM
  relative viability: 0.7
[20]; first compound 0.1265 µM
  relative viability: 0.523
[20]; first compound 0.4 µM
  relative viability: 0.67
[20]; first compound 1.265 µM
  relative viability: 0.518
[20]; first compound 4 µM
  relative viability: 0.384
[21]; first compound 0.04 µM
  relative viability: 1.22
[21]; first compound 0.1265 µM
  relative viability: 1.18
[21]; first compound 0.4 µM
  relative viability: 1.08
[21]; first compound 1.265 µM
  relative viability: 0.465
[21]; first compound 4 µM
  relative viability: 0.249
